From patent publication US20250262201A1, “COMPOUNDS AND METHODS USEFUL FOR STABILIZING PHENYLALANINE HYDROXYLASE MUTATIONS” (Agios Pharmaceuticals, Inc., priority 2022, published 2025)

Molecular target: T1, human PAH with the R408W mutation (Homo sapiens, UniProt P00439, R408W)
T1 construct: expressed in transfected cells
T1 sequence (P00439 1-452 R408W): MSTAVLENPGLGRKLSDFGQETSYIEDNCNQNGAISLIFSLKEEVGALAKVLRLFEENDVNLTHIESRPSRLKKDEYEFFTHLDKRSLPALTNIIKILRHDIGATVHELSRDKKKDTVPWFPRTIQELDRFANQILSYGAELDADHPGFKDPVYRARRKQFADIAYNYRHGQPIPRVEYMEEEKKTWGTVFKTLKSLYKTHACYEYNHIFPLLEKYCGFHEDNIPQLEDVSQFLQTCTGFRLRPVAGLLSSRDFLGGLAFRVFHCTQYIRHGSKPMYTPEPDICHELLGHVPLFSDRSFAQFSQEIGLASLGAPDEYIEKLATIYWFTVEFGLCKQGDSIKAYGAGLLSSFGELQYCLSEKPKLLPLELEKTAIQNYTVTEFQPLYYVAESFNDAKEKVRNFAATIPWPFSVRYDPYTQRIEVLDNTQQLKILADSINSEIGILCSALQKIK
Assay: Cell Based Phenylalanine Flux Assay
Set-up: scale not given here
Conditions: A375 R408W cells, 24 hrs with compound, then 20 μM sepiapterin and 800 μM 13C9,15N-Phenylalanine for 4 hours; 13C-Tyrosine by LC-MS; average where tested multiple times

Row | AC50 | Structure (SMILES)
1 | E, E, | CC1CN(C(=O)c2oc(C(C)(C)O)nc2C(F)(F)F)C(c2cc3ccccc3cn2)c2nc[nH]c21 [(4R,7R) diastereomer of (2-(2-hydroxypropan-2-yl)-4-(trifluo]
2 | E, E | O=C(c1oc(-c2ccncn2)nc1C(F)F)N1CCc2[nH]cnc2C1c1ncc2ccccc2n1 (stereo not drawn)

Same assay, conditions: A375 R408W cells, 24 hrs with compound, then 20 μM sepiapterin and 800 μM 13C9,15N-Phenylalanine for 4 hours; 13C-Tyrosine by LC-MS; average where tested multiple times; read-out: AC50

Row | Structure (SMILES) | AC50 [nM]
3 | O=C(CCc1ccccc1)N1CCc2[nH]cnc2C1c1cn2ccccc2n1 (stereo not drawn) | > 5000
4 | CC(C)(O)c1nc(C(F)(F)F)c(C(=O)N2CCc3[nH]cnc3C2c2cn3ccccc3n2)o1 (stereo not drawn) | 1000 to 5000
5 | CC1CN(C(=O)c2nnc(N3CCOCC3)o2)C(c2cc3ccccc3cn2)c2nc[nH]c21 (stereo not drawn) | 1000 to 5000
6 | CC(C)(O)c1ncc(C(=O)N2CCc3[nH]cnc3C2c2cn3ccccc3n2)s1 (stereo not drawn) | 1000 to 5000

More lines, now with the values ahead:

Row | AC50 [nM] | Structure (SMILES)
7 | 1000 to 5000 | O=C(c1cn[nH]c1)N1CCc2[nH]cnc2C1c1ccc2ccccc2n1 (stereo not drawn)
8 | 1000 to 5000 | O=C(c1nnc(-c2cn[nH]c2)o1)N1CCc2[nH]cnc2C1c1ccc2ccccc2n1 (stereo not drawn)
9 | > 5000 | O=C(c1ccn[nH]1)N1CCc2[nH]cnc2C1c1ccc2ccccc2n1 (stereo not drawn)
10 | > 5000 | O=C(c1nnc(CCNC2CC2)o1)N1CCc2[nH]cnc2C1c1ccc2ccccc2n1 (stereo not drawn)
11 | 1000 to 5000 | O=C(c1oc(C2CC2)nc1C(F)F)N1CCc2[nH]cnc2C1c1ccc2ccccc2n1 (stereo not drawn)
12 | 1000 to 5000 | Cc1nc(C(C)(C)C)oc1C(=O)N1CCc2[nH]cnc2C1c1cc2ccccc2cn1 (stereo not drawn)
13 | 1000 to 5000 | COC(C)(C)c1nc(C)c(C(=O)N2CCc3[nH]cnc3C2c2ccc3ccccc3n2)o1 (stereo not drawn)
14 | > 5000 | CN1CCN(c2nnc(C(=O)N3CCc4[nH]cnc4C3c3ccc4ccccc4n3)o2)CC1 (stereo not drawn)
15 | 1000 to 5000 | COCc1ncc(C(=O)N2CCc3[nH]cnc3[C@@H]2c2ccc3ccccc3n2)o1 (single isomer, unassigned)
16 | 1000 to 5000 | CN(C)c1nnc(C(=O)N2CCc3[nH]cnc3C2c2ccc3ccccc3n2)o1 (stereo not drawn)
17 | > 5000 | CC(C)(O)c1nnc(C(=O)N2CCc3[nH]cnc3C2c2ncc3ccccc3n2)o1 (stereo not drawn)

Same assay, conditions: A375 cells expressing human R408W PAH; 24 hrs compound incubation; 13C-Tyrosine by LC-MS; average where tested multiple times; read-out: AC50

Row | Structure (SMILES) | AC50 [nM]
18 | O=C(c1cnc(-c2cnn(CC(F)(F)F)c2)o1)N1CCc2[nH]cnc2[C@@H]1c1cc2ccccc2cn1 [Example 304, (S)-(4-(isoquinolin-3-yl)-6,7-dihydro-1H-imidazo[4,5-c]pyridin-5(4H)-yl)(2-(1-(2,2,2-trifluoroethyl)-1H-pyrazol-4-yl)oxazol-5-yl)methanone] | > 5000
19 | O=C(c1oc(-c2ccccn2)nc1C1CC1)N1CCCc2[nH]cnc2[C@@H]1c1cc2ccccc2cn1 (single isomer, unassigned) [Example 380] | > 5000
20 | C[C@@H]1CN(C(=O)c2oc(-c3ccccn3)nc2C2CC2)[C@H](c2cc3ccccc3cn2)c2nc[nH]c21 [Example 410, (4-cyclopropyl-2-(pyridin-2-yl)oxazol-5-yl)((4R,7R)-4-(isoquinolin-3-yl)-7-methyl-6,7-dihydro-1H-imidazo[4,5-c]pyridin-5(4H)-yl)methanone] | < 500
21 | O=C(c1nnc(-c2ccncc2)o1)N1CCc2[nH]cnc2[C@H]1c1ncc2ccccc2n1 [Example 179, (S)-(5-(pyridin-4-yl)-1,3,4-oxadiazol-2-yl)(4-(quinazolin-2-yl)-6,7-dihydro-1H-imidazo[4,5-c]pyridin-5(4H)-yl)methanone] | < 500
22 | Cc1ccc2c(C(=O)N3CCc4[nH]cnc4[C@H]3c3cc4ccccc4cn3)cnn2c1 [Example 466, (R)-(4-(isoquinolin-3-yl)-6,7-dihydro-1H-imidazo[4,5-c]pyridin-5(4H)-yl)(6-methylpyrazolo[1,5-a]pyridin-3-yl)methanone] | < 500
23 | C[C@H]1CN(C(=O)c2nnc(C(C)(C)F)o2)[C@@H](c2cc3ccccc3cn2)c2nc[nH]c21 [Example 498, (5-(2-fluoropropan-2-yl)-1,3,4-oxadiazol-2-yl)((4S,7S)-4-(isoquinolin-3-yl)-7-methyl-6,7-dihydro-1H-imidazo[4,5-c]pyridin-5(4H)-yl)methanone] | 1000 to 5000
24 | Cc1nnc(CC(=O)N2CCc3[nH]cnc3[C@H]2c2cc3ccccc3cn2)s1 [Example 351, (R)-1-(4-(isoquinolin-3-yl)-6,7-dihydro-1H-imidazo[4,5-c]pyridin-5(4H)-yl)-2-(5-methyl-1,3,4-thiadiazol-2-yl)ethanone] | 500 to 1000
25 | O=C(c1nnc(N2CCC(F)CC2)o1)N1CCc2[nH]cnc2[C@H]1c1cc2ccccc2cn1 [Example 425, (R)-(5-(4-fluoropiperidin-1-yl)-1,3,4-oxadiazol-2-yl)(4-(isoquinolin-3-yl)-6,7-dihydro-1H-imidazo[4,5-c]pyridin-5(4H)-yl)methanone] | < 500
26 | Cc1ncoc1C(=O)N1CC2(CC2)c2[nH]cnc2[C@H]1c1cc2ccccc2cn1 [Example 493, (R)-(4′-(isoquinolin-3-yl)spiro[cyclopropane-1,7′-imidazo[4,5-c]pyridin]-5′(1′H,4′H,6′H)-yl)(4-methyloxazol-5-yl)methanone] | < 500
27 | Cn1cnc(-c2nnc(C(=O)N3CCc4[nH]cnc4[C@H]3c3cc4ccccc4cn3)o2)c1 [Example 443, (R)-(4-(isoquinolin-3-yl)-6,7-dihydro-1H-imidazo[4,5-c]pyridin-5(4H)-yl)(5-(1-methyl-1H-imidazol-4-yl)-1,3,4-oxadiazol-2-yl)methanone] | < 500
28 | O=C(c1nnc(-c2c(F)cccc2F)o1)N1CCc2[nH]cnc2[C@@H]1c1cc2ccccc2cn1 [Example 335, (S)-(5-(2,6-difluorophenyl)-1,3,4-oxadiazol-2-yl)(4-(isoquinolin-3-yl)-6,7-dihydro-1H-imidazo[4,5-c]pyridin-5(4H)-yl)methanone] | 1000 to 5000
29 | Cc1nc(C(C)(C)O)oc1C(=O)N1C[C@H](C)c2[nH]cnc2[C@H]1c1cc2ccccc2cn1 [Example 389, (2-(2-hydroxypropan-2-yl)-4-methyloxazol-5-yl)((4R,7S)-4-(isoquinolin-3-yl)-7-methyl-6,7-dihydro-1H-imidazo[4,5-c]pyridin-5(4H)-yl)methanone] | < 500
30 | C[C@H]1CN(C(=O)c2oc(C(C)(C)O)nc2C2CC2)[C@H](c2cc3ccccc3cn2)c2nc[nH]c21 [Example 399, (4-cyclopropyl-2-(2-hydroxypropan-2-yl)oxazol-5-yl)((4R,7S)-4-(isoquinolin-3-yl)-7-methyl-6,7-dihydro-1H-imidazo[4,5-c]pyridin-5(4H)-yl)methanone] | < 500
31 | O=C(c1cnn2cc(N3CCOCC3)ccc12)N1CCc2[nH]cnc2[C@H]1c1cc2ccccc2cn1 [Example 458, (R)-(4-(isoquinolin-3-yl)-6,7-dihydro-1H-imidazo[4,5-c]pyridin-5(4H)-yl)(6-morpholinopyrazolo[1,5-a]pyridin-3-yl)methanone] | < 500
32 | O=C(c1cnn2cc(-c3cccnc3)ccc12)N1CCc2[nH]cnc2[C@H]1c1cc2ccccc2cn1 [Example 475, (R)-(4-(isoquinolin-3-yl)-6,7-dihydro-1H-imidazo[4,5-c]pyridin-5(4H)-yl)(6-(pyridin-3-yl)pyrazolo[1,5-a]pyridin-3-yl)methanone] | < 500
33 | Cc1nc(-c2ccccn2)oc1C(=O)N1C[C@@H](C)c2[nH]cnc2[C@@H]1c1cc2ccccc2cn1 [Example 405, [(4S,7R)-4-(3-isoquinolyl)-7-methyl-1,4,6,7-tetrahydroimidazo[4,5-c]pyridin-5-yl]-[4-methyl-2-(2-pyridyl)oxazol-5-yl]methanone] | 1000 to 5000
34 | O=C(c1ocnc1C1CC1)N1CCc2[nH]cnc2[C@H]1c1cn2ccccc2n1 [Example 244, (R)-(4-cyclopropyloxazol-5-yl)(4-(imidazo[1,2-a]pyridin-2-yl)-6,7-dihydro-1H-imidazo[4,5-c]pyridin-5(4H)-yl)methanone] | 500 to 1000

Next, values leading:

Row | AC50 [nM] | Structure (SMILES)
35 | < 500 | O=C(c1cn[nH]c1C(F)F)N1CCc2[nH]cnc2C1c1ccc2ccccc2n1 (stereo in doubt) [Example 259, (R)-(5-(difluoromethyl)-1H-pyrazol-4-yl)(4-(quinolin-2-yl)-6,7-dihydro-1H-imidazo[4,5-c]pyridin-5(4H)-yl)methanone]
36 | 1000 to 5000 | O=C(c1oc(C2CC(F)(F)C2)nc1C(F)F)N1CCc2[nH]cnc2C1c1ccc2ccccc2n1 (stereo in doubt) [Example 72, (S)-(2-(3,3-difluorocyclobutyl)-4-(difluoromethyl)oxazol-5-yl)(4-(quinolin-2-yl)-6,7-dihydro-1H-imidazo[4,5-c]pyridin-5(4H)-yl)methanone]
37 | 500 to 1000 | Cn1nc(Cl)nc1C(=O)N1CCc2[nH]cnc2C1c1ccc2ccccc2n1 (stereo in doubt) [Example 265, (R)-(3-chloro-1-methyl-1H-1,2,4-triazol-5-yl)(4-(quinolin-2-yl)-6,7-dihydro-1H-imidazo[4,5-c]pyridin-5(4H)-yl)methanone]
38 | > 5000 | Cc1nc(C(C)(C)O)oc1C(=O)N1C[C@H](C)c2[nH]cnc2[C@@H]1c1cc2ccccc2cn1 [Example 390, (2-(2-hydroxypropan-2-yl)-4-methyloxazol-5-yl)((4S,7S)-4-(isoquinolin-3-yl)-7-methyl-6,7-dihydro-1H-imidazo[4,5-c]pyridin-5(4H)-yl)methanone]
39 | 1000 to 5000 | CC(C)(O)c1nc(C(F)F)c(C(=O)N2CCc3[nH]cnc3[C@@H]2c2cc3ccccc3nn2)o1 [Example 210, (R)-(4-(cinnolin-3-yl)-6,7-dihydro-1H-imidazo[4,5-c]pyridin-5(4H)-yl)(4-(difluoromethyl)-2-(2-hydroxypropan-2-yl)oxazol-5-yl)methanone]
